Source: patent publication US9938272B2, “Hydrazine compound as blood coagulation factor Xa inhibitor” (NORTH CHINA PHARMACEUTICAL COMPANY., LTD., priority 2014, dated 2018)

Key:
Format in all cases: biochemical
human Factor Xa = human Factor Xa (Homo sapiens (Human), UniProt P00742); assay: Human factor Xa chromogenic assay; conditions: substrate S-2222, read-out: hfXa Ki
rat Factor Xa = rat Factor Xa (Rattus norvegicus (Rat), UniProt Q63207); assay: Rat factor Xa chromogenic assay; conditions: substrate S-2222, read-out: rfXa Ki
Chain of rat Factor Xa (Q63207 232-482): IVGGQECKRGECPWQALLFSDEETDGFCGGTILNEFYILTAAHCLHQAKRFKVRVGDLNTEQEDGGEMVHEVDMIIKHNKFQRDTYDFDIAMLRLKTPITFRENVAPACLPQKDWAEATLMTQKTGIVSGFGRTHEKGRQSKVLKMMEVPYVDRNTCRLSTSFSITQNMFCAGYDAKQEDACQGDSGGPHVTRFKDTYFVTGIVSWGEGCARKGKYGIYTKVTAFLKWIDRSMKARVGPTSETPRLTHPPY
Chain of rat Factor Xa (Q63207 41-180): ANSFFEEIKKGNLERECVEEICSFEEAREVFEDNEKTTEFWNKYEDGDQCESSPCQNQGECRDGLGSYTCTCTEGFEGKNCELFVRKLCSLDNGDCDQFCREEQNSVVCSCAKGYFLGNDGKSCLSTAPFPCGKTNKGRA

human thrombin = human thrombin (Homo sapiens (Human), UniProt P00734); assay: Human thrombin assay; conditions: substrate S-2238
human trypsin = human trypsin (Homo sapiens, UniProt P07477); assay: Human trypsin assay; conditions: substrate S-2222
prothrombinase = prothrombinase (Homo sapiens (Human), UniProt P00742); assay: Prothrombinase assay (thrombin generation); conditions: human factor Xa with human platelets, prothrombin, substrate S-2238
Chain of prothrombinase (P00742 235-488): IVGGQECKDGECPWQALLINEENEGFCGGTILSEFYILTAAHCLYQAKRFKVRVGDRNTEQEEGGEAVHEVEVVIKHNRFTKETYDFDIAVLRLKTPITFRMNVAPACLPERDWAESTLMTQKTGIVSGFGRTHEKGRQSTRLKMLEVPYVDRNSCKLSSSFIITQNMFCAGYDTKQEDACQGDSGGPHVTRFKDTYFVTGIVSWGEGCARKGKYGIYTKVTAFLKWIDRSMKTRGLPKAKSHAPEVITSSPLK
Chain of prothrombinase (P00742 41-179): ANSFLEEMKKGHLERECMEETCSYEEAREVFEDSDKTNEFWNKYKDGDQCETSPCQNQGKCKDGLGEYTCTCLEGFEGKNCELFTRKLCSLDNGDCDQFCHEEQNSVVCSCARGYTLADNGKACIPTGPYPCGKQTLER
Chain of prothrombinase (P12259 29-737 partner): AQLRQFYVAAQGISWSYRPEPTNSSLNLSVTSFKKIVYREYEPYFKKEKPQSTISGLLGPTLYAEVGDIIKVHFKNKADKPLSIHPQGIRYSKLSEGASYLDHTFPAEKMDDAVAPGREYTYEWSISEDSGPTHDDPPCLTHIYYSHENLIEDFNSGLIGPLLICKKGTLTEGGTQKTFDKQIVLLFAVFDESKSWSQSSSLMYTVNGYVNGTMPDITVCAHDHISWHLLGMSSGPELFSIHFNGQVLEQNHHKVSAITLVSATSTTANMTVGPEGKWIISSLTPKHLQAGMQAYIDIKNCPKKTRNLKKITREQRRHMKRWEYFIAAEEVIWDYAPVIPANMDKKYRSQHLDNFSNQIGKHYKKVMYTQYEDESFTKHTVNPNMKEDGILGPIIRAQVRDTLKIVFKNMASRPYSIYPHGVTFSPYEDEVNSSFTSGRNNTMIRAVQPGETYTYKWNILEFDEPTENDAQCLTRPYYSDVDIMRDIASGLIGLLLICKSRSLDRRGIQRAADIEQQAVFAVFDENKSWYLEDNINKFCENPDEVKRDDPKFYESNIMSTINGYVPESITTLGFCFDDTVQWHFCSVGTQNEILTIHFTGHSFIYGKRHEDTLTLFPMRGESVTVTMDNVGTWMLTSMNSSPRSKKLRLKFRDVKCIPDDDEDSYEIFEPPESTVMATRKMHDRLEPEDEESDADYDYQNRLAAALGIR
Chain of prothrombinase (P12259 1574-2224 partner): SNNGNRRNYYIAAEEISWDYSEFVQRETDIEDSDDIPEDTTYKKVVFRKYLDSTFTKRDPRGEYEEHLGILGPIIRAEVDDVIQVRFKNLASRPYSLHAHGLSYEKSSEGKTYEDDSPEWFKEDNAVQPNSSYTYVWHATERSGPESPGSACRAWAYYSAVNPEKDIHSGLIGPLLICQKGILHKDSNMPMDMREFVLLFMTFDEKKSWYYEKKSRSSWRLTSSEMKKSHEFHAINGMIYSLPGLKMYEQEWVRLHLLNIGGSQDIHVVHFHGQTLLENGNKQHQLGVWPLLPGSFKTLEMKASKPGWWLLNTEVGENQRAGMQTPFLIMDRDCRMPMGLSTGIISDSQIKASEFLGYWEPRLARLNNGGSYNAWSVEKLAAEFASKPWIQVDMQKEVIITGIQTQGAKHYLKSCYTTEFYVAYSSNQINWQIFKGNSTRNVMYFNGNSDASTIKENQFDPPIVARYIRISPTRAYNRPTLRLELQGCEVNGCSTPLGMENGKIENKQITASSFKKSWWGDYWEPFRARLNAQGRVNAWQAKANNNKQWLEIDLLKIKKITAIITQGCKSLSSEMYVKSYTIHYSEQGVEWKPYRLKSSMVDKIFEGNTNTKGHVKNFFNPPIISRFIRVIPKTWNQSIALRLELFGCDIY

Chain of human Factor Xa (P00742 235-488): as the sequence (P00742 235-488) above
Chain of human Factor Xa (P00742 41-179): as the sequence (P00742 41-179) above

Row | SMILES | Ki (human Factor Xa) | Ki (rat Factor Xa) | Ki (human thrombin) | Ki (human trypsin) | Ki (prothrombinase)
1 | COc1ccc(-n2nc(C(N)=O)c3c2C(=O)N(C2CCN(C4CCNC4=O)CC2)CC3)cc1 (single isomer, unassigned) [Example 8a, 1-(4-Methoxyphenyl)-7-oxo-6-(1-(2-oxopyrrolidin-3-yl)piperidin-4-yl)-4,5,6,7-tetrahydro-1H-pyrazolo[3,4-c]pyridine-3-carboxamide] | 50 to 1000 nM | 10 to 50 nM |  |  | 
2 | COc1ccc(-n2nc(C(N)=O)cc2C(=O)N(C)C2CCN(N3CCOCC3=O)CC2)cc1 [Example 16, 1-(4-Methoxyphenyl)-N^5-methyl-N^5-(1-(3-oxomorpholino)piperidin-4-yl)-1H-pyrazole-3,5-dicarboxamide] | 50 to 1000 nM |  |  |  | 
3 | CCN(C(=O)c1cc(C(N)=O)nn1-c1ccc(OC)cc1)C1CCN(N2CCOCC2=O)CC1 [Example 17, N^5-Ethyl-1-(4-methoxyphenyl)-N^5-(1-(3-oxomorpholino)piperidin-4-yl)-1H-pyrazole-3,5-dicarboxamide] | 50 to 1000 nM |  |  |  | 
4 | COc1ccc(-n2nc(C(N)=O)cc2C(=O)N(C2CC2)C2CCN(N3CCOCC3=O)CC2)cc1 [Example 18, N^5-Cyclopropyl-1-(4-methoxyphenyl)-N^5-(1-(3-oxomorpholino)piperidin-4-yl)-1H-pyrazole-3,5-dicarboxamide] | 50 to 1000 nM |  |  |  | 
5 | COc1ccc(-n2nc(C(N)=O)cc2C(=O)NC2CCN(N3CCOCC3=O)C2)cc1 (stereo not drawn) [Example 19, 1-(4-Methoxyphenyl)-N^5-(1-(3-oxomorpholino)pyrrolidin-3-yl)-1H-pyrazole-3,5-dicarboxamide] | 50 to 1000 nM |  |  |  | 
6 | NC(=O)c1cc(C(=O)NC2CCN(N3CCOCC3=O)CC2)n(C2CCOCC2)n1 [Example 20, N^5-(1-(3-Oxomorpholino)piperidin-4-yl)-1-(tetrahydro-2H-pyran-4-yl)-1H-pyrazole-3,5-dicarboxamide] | 10 to 50 nM |  |  |  | 
7 | CS(=O)(=O)N1CCC(n2nc(C(N)=O)cc2C(=O)NC2CCN(N3CCOCC3=O)CC2)CC1 [Example 21, 1-(1-(Methylsulfonyl)piperidin-4-yl)-N^5-(1-(3-oxomorpholino)piperidin-4-yl)-1H-pyrazole-3,5-dicarboxamide] | 50 to 1000 nM |  |  |  | 
8 | COC1CCC(n2nc(C(N)=O)cc2C(=O)NC2CCN(N3CCOCC3=O)CC2)CC1 (stereo not drawn) [Example 22, 1-(4-Methoxycyclohexyl)-N^5-(1-(3-oxomorpholino)piperidin-4-yl)-1H-pyrazole-3,5-dicarboxamide] | 50 to 1000 nM |  |  |  | 
9 | N#Cc1cc(-n2nc(C(F)(F)F)c3c2C(=O)N(C2CCN(N4CCOCC4=O)CC2)CC3)ccc1F [Example 25, 2-Fluoro-5-(7-oxo-6-(1-(3-oxomorpholino)piperidin-4-yl)-3-(trifluoromethyl)-4,5,6,7-tetra hydro-1H-pyrazolo[3,4-c]pyridin-1-yl)benzonitrile] | 50 to 1000 nM |  |  |  | 
10 | N#Cc1cccc(-n2nc(C(F)(F)F)c3c2C(=O)N(C2CCN(N4CCOCC4=O)CC2)CC3)c1 [Example 27, 3-(7-Oxo-6-(1-(3-oxomorpholino)piperidin-4-yl)-3-(trifluoromethyl)-4,5,6,7-tetrahydro-1H-pyrazolo[3,4-c]pyridin-1-yl)benzonitrile] | 10 to 50 nM |  |  |  | 
11 | N#Cc1cc(-n2nc(C(F)(F)F)c3c2C(=O)N(C2CCN(N4CCOCC4=O)CC2)CC3)ccc1OC(F)F [Example 30, 2-(Difluoromethoxy)-5-(7-oxo-6-(1-(3-oxomorpholino)piperidin-4-yl)-3-(trifluoromethyl)-4,5,6,7-tetrahydro-1H-pyrazolo[3,4-c]pyridin-1-yl)benzonitrile] | 50 to 1000 nM |  |  |  | 
12 | NC(=O)c1cc(-n2nc(C(F)(F)F)c3c2C(=O)N(C2CCN(N4CCOCC4=O)CC2)CC3)ccc1F [Example 32, 2-Fluoro-5-(7-oxo-6-(1-(3-oxomorpholino)piperidin-4-yl)-3-(trifluoromethyl)-4,5,6,7-tetra hydro-1H-pyrazolo[3,4-c]pyridin-1-yl)benzamide] | 50 to 1000 nM |  |  |  | 
13 | NC(=O)c1cc(-n2nc(C(F)(F)F)c3c2C(=O)N(C2CCN(N4CCOCC4=O)CC2)CC3)ccc1OC(F)F [Example 33, 2-(Difluoromethoxy)-5-(7-oxo-6-(1-(3-oxomorpholino)piperidin-4-yl)-3-(trifluoromethyl)-4,5,6,7-tetrahydro-1H-pyrazolo[3,4-c]pyridin-1-yl)benzamide] | 50 to 1000 nM |  |  |  | 

Now from value to compound:

Row | Ki (human Factor Xa) | Ki (rat Factor Xa) | Ki (human thrombin) | Ki (human trypsin) | Ki (prothrombinase) | SMILES
14 | ≤ 10 nM | 10 to 50 nM | ≥ 1000 nM | ≥ 1000 nM | 10 to 50 nM | COc1ccc(-n2nc(C(N)=O)c3c2C(=O)N(C2CCN(C4CCNC4=O)CC2)CC3)cc1 (single isomer, unassigned) [Example 8b, 1-(4-Methoxyphenyl)-7-oxo-6-(1-(2-oxopyrrolidin-3-yl)piperidin-4-yl)-4,5,6,7-tetrahydro-1H-pyrazolo[3,4-c]pyridine-3-carboxamide]
15 | ≤ 10 nM | ≤ 10 nM | ≥ 1000 nM | ≥ 1000 nM | ≤ 10 nM | COc1ccc(-n2nc(C(F)(F)F)c3c2C(=O)N(C2CCN(N4CCOCC4=O)CC2)CC3)cc1 [Example 1, 4-(4-(1-(4-Methoxyphenyl)-7-oxo-3-(trifluoromethyl)-4,5-dihydro-1H-pyrazolo[3,4-c]pyridin-6(7H)-yl)piperidin-1-yl)morpholin-3-one]
16 | ≤ 10 nM | ≤ 10 nM | ≥ 1000 nM | ≥ 1000 nM | ≤ 10 nM | COc1ccc(-n2nc(C(F)(F)F)c3c2C(=O)N(C2CCN(N4CCCCC4=O)CC2)CC3)cc1 [Example 2, 1-(4-Methoxyphenyl)-6-(2′-oxo-[1,1′-bipiperidin]-4-yl)-3-(trifluoromethyl)-5,6-dihydro-1H-pyrazolo[3,4-c]pyridin-7(4H)-one]
17 | ≤ 10 nM | ≤ 10 nM | ≥ 1000 nM | ≥ 1000 nM | ≤ 10 nM | COc1ccc(-n2nc(C(F)(F)F)c3c2C(=O)N(C2CCN(N4CCCC4=O)CC2)CC3)cc1 [Example 3, 1-(4-Methoxyphenyl)-6-(1-(2-oxopyrrolidin-1-yl)piperidin-4-yl)-3-(trifluoromethyl)-5,6-dihydro-1H-pyrazolo[3,4-c]pyridin-7(4H)-one]
18 | ≤ 10 nM | 10 to 50 nM | ≥ 1000 nM | ≥ 1000 nM | ≤ 10 nM | COc1ccc(-n2nc(C(N)=O)c3c2C(=O)N(C2CCN(N4CCCCC4=O)CC2)CC3)cc1 [Example 4, 1-(4-Methoxyphenyl)-7-oxo-6-(2′-oxo-[1,1′-bipiperidin]-4-yl)-4,5,6,7-tetrahydro-1H-pyrazolo[3,4-c]pyridine-3-carboxamide]
19 | 10 to 50 nM | 10 to 50 nM | ≥ 1000 nM | ≥ 1000 nM | ≤ 10 nM | COc1ccc(-n2nc(C#N)c3c2C(=O)N(C2CCN(N4CCCCC4=O)CC2)CC3)cc1 [Example 5, 1-(4-Methoxyphenyl)-7-oxo-6-(2′-oxo-[1,1′-bipiperidin]-4-yl)-4,5,6,7-tetrahydro-1H-pyrazolo[3,4-c]pyridine-3-carbonitrile]
20 | ≤ 10 nM | 10 to 50 nM | ≥ 1000 nM | ≥ 1000 nM | ≤ 10 nM | COc1ccc(-n2nc(/C(N)=N\C#N)c3c2C(=O)N(C2CCN(N4CCCCC4=O)CC2)CC3)cc1 [Example 6, N′-Cyano-1-(4-methoxyphenyl)-7-oxo-6-(2′-oxo-[1,1′-bipiperidin]-4-yl)-4,5,6,7-tetrahydro-1H-pyrazolo[3,4-c]pyridine-3-carboximidamide]
21 | ≤ 10 nM | 10 to 50 nM | ≥ 1000 nM | ≥ 1000 nM | ≤ 10 nM | COc1ccc(-n2nc(C(N)=O)c3c2C(=O)N(C2CCN(N4CCOCC4=O)CC2)CC3)cc1 [Example 7, 1-(4-Methoxyphenyl)-7-oxo-6-(1-(3-oxomorpholino)piperidin-4-yl)-4,5,6,7-tetrahydro-1H-pyrazolo[3,4-c]pyridine-3-carboxamide]
22 | 10 to 50 nM |  |  |  |  | NC(=O)c1nn(-c2ccc(Cl)cc2)c2c1CCN(C1CCN(N3CCOCC3=O)CC1)C2=O [Example 9, 1-(4-Chlorophenyl)-7-oxo-6-(1-(3-oxomorpholino)piperidin-4-yl)-4,5,6,7-tetrahydro-1H-pyrazolo[3,4-c]pyridine-3-carboxamide]
23 | ≤ 10 nM | 50 to 1000 nM | ≥ 1000 nM | ≥ 1000 nM | 50 to 1000 nM | NC(=O)c1nn(-c2ccc(OC(F)(F)F)cc2)c2c1CCN(C1CCN(N3CCOCC3=O)CC1)C2=O [Example 10, 7-Oxo-6-(1-(3-oxomorpholino)piperidin-4-yl)-1-(4-(trifluoromethoxy)phenyl)-4,5,6,7-tetr a hydro-1H-pyrazolo[3,4-c]pyridine-3-carboxamide]
24 | ≤ 10 nM | 10 to 50 nM | ≥ 1000 nM | ≥ 1000 nM | ≤ 10 nM | NC(=O)c1nn(-c2ccc(OC(F)F)cc2)c2c1CCN(C1CCN(N3CCOCC3=O)CC1)C2=O [Example 11, 1-(4-(Difluoromethoxy)phenyl)-7-oxo-6-(1-(3-oxomorpholino)piperidin-4-yl)-4,5,6,7-tetra hydro-1H-pyrazolo[3,4-c]pyridine-3-carboxamide]
25 | 10 to 50 nM |  |  |  |  | COc1ccc(-n2nc(C(N)=O)c3c2C(=O)N(C2C4CN(N5CCCCC5=O)CC42)CC3)cc1 (stereo not drawn) [Example 12, 1-(4-Methoxyphenyl)-7-oxo-6-(3-(2-oxopiperidin-1-yl)-3-azabicyclo[3.1.0]hexan-6-yl)-4,5,6,7-tetrahydro-1H-pyrazolo[3,4-c]pyridine-3-carboxamide]
26 | 10 to 50 nM |  |  |  |  | COc1ccc(-n2nc(C(N)=O)c3c2C(=O)N(C2C4CN(N5CCOCC5=O)CC42)CC3)cc1 (stereo not drawn) [Example 13, 1-(4-Methoxyphenyl)-7-oxo-6-(3-(3-oxomorpholino)-3-azabicyclo[3.1.0]hexan-6-yl)-4,5,6,7-tetrahydro-1H-pyrazolo[3,4-c]pyridine-3-carboxamide]
27 | 10 to 50 nM |  |  |  | 10 to 50 nM | COc1ccc(-n2nc(C(N)=O)cc2C(=O)NC2CCN(N3CCOCC3=O)CC2)cc1 [Example 15, 1-(4-Methoxyphenyl)-N^5-(1-(3-oxomorpholino)piperidin-4-yl)-1H-pyrazole-3,5-dicarboxamide]
